Here are results for 17 molecules from US20150329498A1, “IRAK INHIBITORS AND USES THEREOF” (Nimbus Iris, Inc., priority 2014, published 2015).

As a reminder, the IC50 is the concentration at which inhibition is half-maximal. Read a low IC50 as inhibition by little substance.

One assay addresses T1, IRAK4 (Homo sapiens, UniProt Q9NWZ3).
T1 construct: purchased CARNA Bioscience 09-145
T1 sequence (Q9NWZ3 1-460): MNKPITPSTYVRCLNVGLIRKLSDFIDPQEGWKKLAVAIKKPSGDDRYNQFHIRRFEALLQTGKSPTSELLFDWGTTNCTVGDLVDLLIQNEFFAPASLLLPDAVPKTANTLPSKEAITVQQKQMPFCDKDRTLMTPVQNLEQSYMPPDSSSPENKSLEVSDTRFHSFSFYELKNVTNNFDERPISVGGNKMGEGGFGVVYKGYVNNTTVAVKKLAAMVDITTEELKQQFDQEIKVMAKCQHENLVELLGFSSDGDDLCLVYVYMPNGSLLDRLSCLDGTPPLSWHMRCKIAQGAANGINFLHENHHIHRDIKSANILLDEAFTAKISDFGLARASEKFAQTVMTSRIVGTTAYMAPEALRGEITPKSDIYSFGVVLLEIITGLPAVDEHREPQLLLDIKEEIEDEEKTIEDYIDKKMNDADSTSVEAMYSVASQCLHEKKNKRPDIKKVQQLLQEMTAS
Nature of the assay: IRAK-4 activity inhibition assay (Caliper). In kind it is biochemical. To be noted: 3.5 nM IRAK4, 1.5 μM Peptide 8, 37 μM ATP. As to the method:
A 1x kinase base buffer was prepared from 50 mM HEPES, pH 7.5 and 0.0015% Brij-35. A stop buffer was prepared from 100 mM HEPES, pH 7.5, 0.015% Brij-35, 0.2% Coating Reagent #3, and 50 mM EDTA.
Test compound was diluted to 50× of the final desired highest inhibitor concentration in reaction by 100% DMSO. 100 ul of this compound dilution was transferred to a well in a 96-well plate. For example, if desired highest inhibitor concentration in IC50 determination is 100 uM, then prepare 5000 uM of compound DMSO solution in this step.
Test compound was serially diluted by transferring 30 μl to 60 μl of 100% DMSO in the next well and so forth for a total of 10 concentrations. 100 μl of 100% DMSO was added to two empty wells for no compound control and no enzyme control in the same 96-well plate.
A new 96-well plate was marked as intermediate plate. 5 μl of compound serial dilution was transferred from source plate to the corresponding wells of the intermediate plate. 45 μl of 1x kinase base buffer (KB buffer) was added to each well of the intermediate plate. The intermediate plate was placed for 10 min on a shaker.
5 μl of each well was transferred from the 96-well intermediate plate to a 384-well plate in duplicates. For example, A1 of the 96-well plate is transferred to A1 and A2 of the 384-well plate. A2 of the 96-well plate is transferred to A3 and A4 of the 384-well plate, and so on.
IRAK4 and DTT in 1x kinase base buffer was added. The 2.5x enzyme mix contained 8.8 nM IRAK4 and 5 mM DTT.
Peptide 8, ATP, MgCl2 and MnCl2 were added in the 1x kinase base buffer. The 2.5x peptide mix contained 3.75 μM peptide 8, 92.5 μM ATP, 12.5 mM MgCl2 and 2.5 mM MnCl2.
Assay plate already contained 5 μl of compound in 10% DMSO. Added 10 μl of 2.5x enzyme solution to each well of the 384-well assay plate, except no enzyme control wells. The final concentration of IRAK4 in reaction was 3.5 nM. Added 10 μl of 1x kinase base buffer to no enzyme control wells in the assay plate. Incubated at room temperature for 10 min.
Added 10 μl of 2.5x peptide solution to each well of the 384-well assay plate. The final concentration of Peptide 8 and ATP was 1.5 μM and 37 μM, respectively. Incubated at for 40 minutes. Added 25 μl of stop buffer to stop reaction. Collected data on Caliper.
Copied conversion % data from Caliper program. Converted conversion % values to percent inhibition values. Percent inhibition=(max−conversion %)/(max−min)*100, where “max” means the conversion % of DMSO control and “min” means the conversion % of no enzyme control.
The compound numbers correspond to the compound numbers in Table 1. Compounds having an activity designated as “A” provided an IC50≦5 μM; compounds having an activity designated as “B” provided an IC50 of 5-20 μM; compounds having an activity designated as “C” provided an IC50 of 20-50 μM; and compounds having an activity designated as “D” provided an IC50≧50 μM. “NA” stands for “not assayed.”

For assay [1], the system named is TNFα production in THP-1 cells. Nature of the assay: LPS induced TNFα production assay in THP-1 cells. The class given is cell-based. The note with it: Homo sapiens, 300 ng/mL LPS, measured at 5 hours. Here is the method: (§1) Provided compounds were also assayed in an LPS (Lipopolysaccharide) or R848 (TLR-7 agonist) induced cytokine (TNFα and IL8) production assay in THP-1 cells, human white blood cells (hWBC), and human whole blood. The exemplary protocol for this assay in THP-1 cells was as follows below.
(§2) THP-1 cells from ATCC (TIB-202) were cultured in RPMI Medium 1640 (Invitrogen, Cat No. A10491-01), 10% fetal bovine serum (Invitrogen, Cat No. 10099141, Lot No. 8172882) containing 100 U/mL Penicillin, 100 μg/mL streptomycin (Invitrogen, Cat No. 15140-122), and 50 uM 2-Mercaptoethanol (Invitrogen, Cat No. 21985023). LPS-EK ultra pure (Invivogen, Cat No. tlrl-peklps) was used to induce IL8 and TNFα production, that was detected in the cell culture supernatant by IL8 HTRF kit (Cisbio, Cat No. 62IL8PEB) and TNFα HTRF kit (Cisbio, Cat No. 62TNFPEB), as per manufacturer instructions. Cells were cultured in 96 well assay plates at 100,000 cells per well, and compounds diluted in final 0.3% DMSO were pre-incubated with cells for 1 hour prior to stimulation with 300 ng/mL LPS. Cytokine production in cell supernatant was measured at 5 hours for TNFα production, and at 16 hours for IL8 production and assessment of cell viability.
(§3) The compound numbers correspond to the compound numbers in Table 1. Compounds having an activity designated as “A” provided an IC50≦0.5 μM; compounds having an activity designated as “B” provided an IC50 of 0.5-5.0 μM; compounds having an activity designated as “C” provided an IC50>5.0 μM. “NA” stands for “not assayed.”

Assay [2] concerns IL8 production in THP-1 cells. Nature of the assay: LPS induced IL8 production assay in THP-1 cells. The class given is cell-based. To be noted: Homo sapiens, 300 ng/mL LPS, measured at 16 hours. As to the method: as §1, §2, §3

Regarding `Clc1ccc2ncnc(N[C@H]3CC[C@H](N4CCC5(CC4)CC5)CC3)c2c1` [Compound I-36, N-((1r,4r)-4-(6-azaspiro[2.5]octan-6-yl)cyclohexyl)-6-chloro-quinazolin-4-amine], the IC50 against IRAK4 was not above 5 µM; in assay [1], not above 0.5 µM; in assay [2], 0.5 to 5 µM.

As for `OCCc1ccc2ncnc(N[C@H]3CC[C@H](N4CCOCC4)CC3)c2c1` [Compound I-40, 2-(4-(((1r,4r)-4-morpholinocyclohexyl)amino)quinazolin-6-yl)ethanol], the values for the IC50 (on IRAK4; in assay [1]; in assay [2]) were not above 5 µM, 0.5 to 5 µM and not above 0.5 µM, respectively.

Take `NC(=O)c1ccc2ncnc(N[C@H]3CC[C@H](N4CCOCC4)CC3)c2c1` [Compound I-5, 4-(((1r,4r)-4-morpholinocyclohexyl)amino)quinazoline-6-carboxamide]: the IC50 against IRAK4 was not above 5 µM; in assay [1], 0.5 to 5 µM; in assay [2], more than 5 µM.

For `N#CCc1ccc2ncnc(N[C@H]3CC[C@H](N4CCOCC4)CC3)c2c1` [Compound I-34, 2-(4-(((1r,4r)-4-morpholinocyclohexyl)amino)-quinazolin-6-yl)acetonitrile], the figures for the IC50 (against IRAK4; in assay [1]; in assay [2]) were not above 5 µM, 0.5 to 5 µM and not above 0.5 µM, respectively.

For `C=Cc1ccc2ncnc(N[C@H]3CC[C@H](N4CCC5(CC4)CC5)CC3)c2c1` [Compound I-38, N-((1r,4r)-4-(6-azaspiro[2.5]octan-6-yl)cyclohexyl)-6-vinyl-quinazolin-4-amine], the IC50 against IRAK4 was not above 5 µM; in assay [1] it was not above 0.5 µM; in assay [2] it was not above 0.5 µM.

For the molecule `OCC#Cc1ccc2ncnc(N[C@H]3CC[C@H](N4CCC5(CC4)CC5)CC3)c2c1` [Compound I-44, 3-(4-(((1r,4r)-4-(6-azaspiro[2.5]octan-6-yl)cyclohexyl)amino)-quinazolin-6-yl)prop-2-yn-1-ol], the IC50 at IRAK4 was not above 5 µM; in assay [1], not above 0.5 µM; in assay [2], not above 0.5 µM.

Consider `N#Cc1ccc2nccc(N[C@H]3CC[C@H](N4CCOCC4)CC3)c2c1` [Compound I-47, 4-(((1r,4r)-4-morpholinocyclohexyl)amino)quinoline-6-carbo-nitrile], for which the figures for the IC50 (against IRAK4; in assay [1]; in assay [2]) were not above 5 µM, 0.5 to 5 µM and not above 0.5 µM, respectively.

For `OCC#Cc1ccc2ncnc(N[C@H]3CC[C@H](N4CCOCC4)CC3)c2c1` [Compound I-30, 3-(4-(((1r,4r)-4-morpholinocyclohexyl)amino)quinazolin-6-yl)prop-2-yn-1-ol], the half-inhibitory concentration (IC50) against IRAK4 is not above 5 µM; in assay [1], not above 0.5 µM; in assay [2], not above 0.5 µM.

Take `N#Cc1ccc2nc(Nc3cnn(C4CCC(O)CC4)c3)nc(N[C@H]3CC[C@H](N4CCOCC4)CC3)c2c1` (some centres unmarked) [Compound I-28, 2-((1-(4-hydroxycyclohexyl)-1H-pyrazol-4-yl)amino)-4-(((1r,4r)-4-morpholinocyclohexyl)amino)quinazoline-6-carbonitrile]: the IC50 at IRAK4 was not above 5 µM; in assay [1], not above 0.5 µM; in assay [2] it was not above 0.5 µM.

For `Clc1ccc2ncnc(N[C@H]3CC[C@H](N4CCC5(CC4)COC5)CC3)c2c1` [Compound I-27, N-((1r,4r)-4-(2-oxa-7-azaspiro[3.5]nonan-7-yl)cyclohexyl)-6-chloroquinazolin-4-amine], the IC50 was not above 5 µM at IRAK4, not above 0.5 µM in assay [1] and not above 0.5 µM in assay [2].

With `NC(=O)/C=C/c1ccc2ncnc(N[C@H]3CC[C@H](N4CCOCC4)CC3)c2c1` [Compound I-54, (E)-3-(4-(((1r,4r)-4-morpholinocyclohexyl)amino)quinazolin-6-yl)acrylamide], the IC50 on IRAK4 was not above 5 µM; in assay [1], 0.5 to 5 µM; in assay [2], more than 5 µM.

With `c1nc(N[C@H]2CC[C@H](N3CCOCC3)CC2)c2c3c(ccc2n1)CCC3` [Compound I-29, N-((1r,4r)-4-morpholinocyclohexyl)-8,9-dihydro-7H-cyclo-penta[f]quinazolin-1-amine], the IC50 on IRAK4 was not above 5 µM; in assay [1], 0.5 to 5 µM; in assay [2] it was not above 0.5 µM.

`N#CCc1ccc2ncnc(N[C@H]3CC[C@H](N4CCC5(CC4)CC5)CC3)c2c1` [Compound I-52, 2-(4-(((1r,4r)-4-(6-azaspiro[2.5]octan-6-yl)cyclohexyl)amino)quin-azolin-6-yl)acetonitrile]: the IC50 against IRAK4 was not above 5 µM; in assay [1], not above 0.5 µM; in assay [2], not above 0.5 µM.

Regarding `c1nc(N[C@H]2CC[C@H](N3CCOCC3)CC2)c2cc(-c3cn[nH]c3)ccc2n1` [Compound I-59, N-((1r,4r)-4-morpholinocyclohexyl)-6-(1H-pyrazol-4-yl)quinazolin-4-amine], the IC50 against IRAK4 is not above 5 µM; in assay [1], not above 0.5 µM; in assay [2] it was not above 0.5 µM.

In the case of `CCc1ccc2ncnc(N[C@H]3CC[C@H](N4CCC5(CC4)CC5)CC3)c2c1` [Compound I-39, N-((1r,4r)-4-(6-azaspiro[2.5]octan-6-yl)cyclohexyl)-6-ethyl-quinazolin-4-amine], the IC50 is not above 5 µM on IRAK4, not above 0.5 µM in assay [1] and not above 0.5 µM in assay [2].

For `OCCCc1ccc2ncnc(N[C@H]3CC[C@H](N4CCOCC4)CC3)c2c1` [Compound I-46, 3-(4-(((1r,4r)-4-morpholinocyclohexyl)amino)quinazolin-6-yl)propan-1-ol], the IC50 is not above 5 µM at IRAK4, not above 0.5 µM in assay [1] and not above 0.5 µM in assay [2].

With `C=Cc1ccc2ncnc(N[C@H]3CC[C@H](N4CCOCC4)CC3)c2c1` [Compound I-20, N-((1r,4r)-4-morpholinocyclohexyl)-6-vinylquinazolin-4-amine], the concentration for half-maximal inhibition (IC50) at IRAK4 is not above 5 µM; in assay [1], not above 0.5 µM.
